# Measurements from patent publication US10428080B2, “TBK/IKK inhibitor compounds and uses thereof” (Merck Patent GmbH, priority 2015, dated 2019).
# Structures can show the parent of a compound that is named as a salt.
# Experiments:
# IKKε = target: T1, IKKε (Homo sapiens, UniProt Q14164); test: IKKe Biochemical Assay; conditions: read-out: IKKε IC50
# T1 sequence (Q14164 1-716): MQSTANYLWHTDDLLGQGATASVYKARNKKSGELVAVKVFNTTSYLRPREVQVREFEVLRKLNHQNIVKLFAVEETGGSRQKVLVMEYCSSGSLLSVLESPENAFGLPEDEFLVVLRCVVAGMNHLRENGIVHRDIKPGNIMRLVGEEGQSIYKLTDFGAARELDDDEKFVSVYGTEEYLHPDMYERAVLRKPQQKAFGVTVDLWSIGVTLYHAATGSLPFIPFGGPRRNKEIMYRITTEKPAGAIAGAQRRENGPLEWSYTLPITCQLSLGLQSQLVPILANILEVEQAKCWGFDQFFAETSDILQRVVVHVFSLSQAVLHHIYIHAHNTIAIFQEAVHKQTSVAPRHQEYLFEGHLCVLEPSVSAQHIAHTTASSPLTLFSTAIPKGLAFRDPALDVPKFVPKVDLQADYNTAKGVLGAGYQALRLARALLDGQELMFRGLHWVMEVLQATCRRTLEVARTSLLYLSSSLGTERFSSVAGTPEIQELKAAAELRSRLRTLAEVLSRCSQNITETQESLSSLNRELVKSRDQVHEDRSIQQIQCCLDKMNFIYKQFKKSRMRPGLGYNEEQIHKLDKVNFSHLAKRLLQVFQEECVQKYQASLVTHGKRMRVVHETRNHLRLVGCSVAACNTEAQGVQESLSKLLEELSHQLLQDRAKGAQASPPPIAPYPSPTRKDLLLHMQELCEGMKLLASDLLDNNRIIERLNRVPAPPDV
# Summary of the method: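 Recombinant IKKε and substrate were incubated with compound (10-point 1:4 series, top 30 uM final, 1% DMSO) for 90 min at 25° C, then stopped. Substrate-to-product conversion was read by LabChip microfluidic mobility shift; 10 uM staurosporine served as full-inhibition wells.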
# [1] = test system: phosphorylation of the IRF-3 protein in MDA-MB-468 cells; test: pIRF3 immunocytochemistry cell based assay; conditions: Homo sapiens; MDA-MB-468 cells, Poly(I:C) stimulation; read-out: pIRF3 IC50
# Procedure: The purpose of the pIRF3 immunocytochemistry cell based assay was to identify small molecules which modulates TBK/IKKe kinase activity through on target substrate phosphorylation of the IRF-3 protein. On the first day of the experiment, MDA-MB-468 cells were plated in 384 well, black, clear-bottom, Poly D lysine coated plates at a density of 5000 cells/well in 45 ul of complete DMEM and allowed to adhere overnight. On the second day compounds were added to cells at a starting concentration of 10 uM with a serial dilution of 3-fold for a total of 10 points. The cells were incubated for 1 hr at 37° C. Cells were then stimulated with Poly(I:C) at a final concentration of 10 ug/ml, and were incubated for 2 hr at 37° C. Following the incubation, media was removed from the wells and the cells were fixed with 4% PFA for 15 min at RT. Cells were washed at least 3 times with PBS, and then permeabilized with ice-cold methanol for 10 min at RT. The washing step was repeated and the cells were then blocked using 10% goat serum/1% BSA, made up in PBS and allowed to incubate at RT for 1 hr. The cells were washed again and then treated with an anti-pIRF3 antibody at 4° C. overnight (1:250 dilution of Abcam ab76493 in PBS containing 1% BSA). On the third day the primary antibody was washed off and pIRF3 was detected by adding the secondary antibody conjugated to AlexaFluor488 (1:200 dilution of secondary antibody in PBS containing 1% BSA) for 1 hr at RT. Cells were washed and then counterstained with PI/RNase staining buffer for 15 min at RT and read on the Acumen Explorer laser scanning cytometer. The percentage of phosphorylation of the IRF-3 protein was calculated using the following algorithm, a modified version of the mean half width intensity (pIRF3 staining)/(PI staining or # of cells)×100%). IC50 curves were generated using the Genedata software.
# TBK1 = target: T2, TBK1 (Homo sapiens, UniProt Q9UHD2); test: TBK Biochemical Assay; conditions: read-out: TBK1 IC50
# T2 sequence (Q9UHD2 1-729): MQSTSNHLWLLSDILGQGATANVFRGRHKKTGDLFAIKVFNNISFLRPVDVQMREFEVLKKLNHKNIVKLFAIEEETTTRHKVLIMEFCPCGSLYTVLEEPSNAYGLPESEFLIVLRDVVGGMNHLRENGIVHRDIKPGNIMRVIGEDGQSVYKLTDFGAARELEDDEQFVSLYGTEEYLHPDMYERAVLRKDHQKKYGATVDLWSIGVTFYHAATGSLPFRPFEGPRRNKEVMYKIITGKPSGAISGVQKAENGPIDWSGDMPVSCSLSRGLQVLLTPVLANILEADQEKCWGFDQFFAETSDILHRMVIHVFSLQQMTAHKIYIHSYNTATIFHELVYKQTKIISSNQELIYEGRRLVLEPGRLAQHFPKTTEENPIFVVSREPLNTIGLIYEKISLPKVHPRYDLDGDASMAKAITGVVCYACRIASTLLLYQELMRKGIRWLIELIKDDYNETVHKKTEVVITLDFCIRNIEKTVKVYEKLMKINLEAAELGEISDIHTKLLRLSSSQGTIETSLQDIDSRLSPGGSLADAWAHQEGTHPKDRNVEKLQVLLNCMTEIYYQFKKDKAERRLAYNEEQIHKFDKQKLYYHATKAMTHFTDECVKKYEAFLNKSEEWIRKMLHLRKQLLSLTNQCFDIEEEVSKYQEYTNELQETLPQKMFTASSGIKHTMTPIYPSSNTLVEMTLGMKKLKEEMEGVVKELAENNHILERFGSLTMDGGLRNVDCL
# Summary of the method: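 TBK1 enzyme and substrate incubated with compounds (10-point 1:4 dilution, top 30 uM final, 1% DMSO) for 90 min at 25° C, then stopped. Substrate/product peaks read by microfluidic mobility-shift (Caliper LabChip); 10 uM staurosporine as full-inhibition control.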
Compound,IC50 (IKKε),IC50 [1],IC50 (TBK1)
"N#Cc1cc(-c2ccnc3cc(-c4ccc(C(=O)N5CCN(C6CC6)CC5)cc4)oc23)ccc1OC1CCOCC1 [Compound 133, 5-{2-[4-(4-Cyclopropyl-piperazine-1-carbonyl)-phenyl]-furo[3,2-b]pyridin-7-yl}-2-(tetrahydro-pyran-4-yloxy)-benzonitrile]",< 0.1 µM,1 to 5 µM,< 0.1 µM
"CN(C)C(=O)c1ccc(-c2cc3nccc(-c4ccc(N5CCC(N(C)C6CC6)C5)c(C#N)c4)c3o2)cc1 (stereo not drawn) [Compound 179, 4-(7-{3-Cyano-4-[3-(cyclopropyl-methyl-amino)-pyrrolidin-1-yl]-phenyl}-furo[3,2-b]pyridin-2-yl)-N,N-dimethyl-benzamide]",0.1 to 1 µM,1 to 5 µM,0.1 to 1 µM
"COc1cc(C(=O)NC2CN3CCC2CC3)cnc1-c1cc2nccc(-c3ccc(N4CC[C@@H](F)C4)c(C#N)c3)c2o1 (stereo partly drawn) [Compound 440, N—(S)-1-Aza-bicyclo[2.20.2]oct-3-yl-6-{7-[3-cyano-4-((R)-3-fluoro-pyrrolidin-1-yl)-phenyl]-furo[3,2-b]pyridin-2-yl}-5-methoxy-nicotinamide]",< 0.1 µM,0.1 to 1 µM,< 0.1 µM
"COc1cc(C(=O)N(C)C)ccc1-c1cc2nccc(-c3ccc(N4CC[C@@H](F)C4)c(C#N)c3)c2o1 [Compound 57, 4-{7-[3-Cyano-4-((R)-3-fluoro-pyrrolidin-1-yl)-phenyl]-furo[3,2-b]pyridin-2-yl}-3-methoxy-N,N-dimethyl-benzamide]",< 0.1 µM,0.1 to 1 µM,< 0.1 µM
"COc1cc(C(=O)NC2CN(C)C2)ccc1-c1cc2nccc(-c3ccc(OC4CCOCC4)c(C#N)c3)c2o1 [Compound 28, 4-{7-[3-Cyano-4-(tetrahydro-pyran-4-yloxy)-phenyl]-furo[3,2-b]pyridin-2-yl}-3-methoxy-N-(1-methyl-azetidin-3-yl)-benzamide]",< 0.1 µM,< 0.1 µM,< 0.1 µM
"COc1cc(C(=O)N2CC3NCCC32)ccc1-c1cc2nccc(-c3ccc(OC4CCOCC4)c(C#N)c3)c2o1 (stereo not drawn) [Compound 55, 5-{2-[4-(2,6-Diaza-bicyclo[3.2.0]heptane-6-carbonyl)-2-methoxy-phenyl]-furo[3,2-b]pyridin-7-yl}-2-(tetrahydro-pyran-4-yloxy)-benzonitrile hydrochloride]",< 0.1 µM,< 0.1 µM,< 0.1 µM
"COc1cc(C(=O)N(C)CCO)ccc1-c1cc2ncc(Cl)c(-c3ccc(OC4CCOCC4)c(C#N)c3)c2o1 [Compound 304, 4-[6-chloro-7-[3-cyano-4-(oxan-4-yloxy)phenyl]furo[3,2-b]pyridin-2-yl]-N-(2-hydroxyethyl)-3-methoxy-N-methylbenzamide]",0.1 to 1 µM,1 to 5 µM,0.1 to 1 µM

# Next, values leading:
IC50 (IKKε),IC50 [1],IC50 (TBK1),Compound
< 0.1 µM,0.1 to 1 µM,< 0.1 µM,"COc1cc(C(=O)N2CCCCN2C)ccc1-c1cc2nccc(-c3ccc(OC4CCOCC4)c(C#N)c3)c2o1 [Compound 478, 5-{2-[2-Methoxy-4-(2-methyl-tetrahydro-pyridazine-1-carbonyl)-phenyl]-furo[3,2-b]pyridin-7-yl}-2-(tetrahydro-pyran-4-yloxy)-benzonitrile]"
< 0.1 µM,< 0.1 µM,< 0.1 µM,"COc1cc(C(=O)N(C)C)cnc1-c1cc2nccc(-c3ccc(NC4CCN(C)C4)c(C#N)c3)c2o1 (stereo not drawn) [Compound 433, 6-(7-[3-cyano-4-[(1-methylpyrrolidin-3-yl)amino]phenyl]furo[3,2-b]pyridin-2-yl)-5-methoxy-N,N-dimethylpyridine-3-carboxamide]"
0.1 to 1 µM,0.1 to 1 µM,0.1 to 1 µM,"COc1cc(C(=O)N(C)C)cnc1-c1cc2nccc(-c3ccc(OC4CN(C)C4)c(C#N)c3)c2o1 [Compound 425, 6-(7-[3-cyano-4-[(1-methylazetidin-3-yl)oxy]phenyl]furo[3,2-b]pyridin-2-yl)-5-methoxy-N,N-dimethylpyridine-3-carboxamide]"
< 0.1 µM,< 0.1 µM,< 0.1 µM,"COc1cc(C(=O)N2CCN(C)CC2)cnc1-c1cc2nccc(-c3ccc(N4CC[C@@H](F)C4)c(C#N)c3)c2o1 [Compound 462, 2-(3(R)-fluoropyrrolidin-1-yl)-5-(2-[3-methoxy-5-[(4-methylpiperazin-1-yl)carbonyl]pyridin-2-yl]furo[3,2-b]pyridin-7-yl)benzonitrile]"
< 0.1 µM,0.1 to 1 µM,< 0.1 µM,"COc1nc(C(=O)N(C)C)ccc1-c1cc2nccc(-c3ccc(N4CC[C@H](F)C4)c(C#N)c3)c2o1 [Compound 314, 5-{7-[3-Cyano-4-((S)-3-fluoro-pyrrolidin-1-yl)-phenyl]-furo[3,2-b]pyridin-2-yl}-6-methoxy-pyridine-2-carboxylic acid dimethylamide]"
< 0.1 µM,0.1 to 1 µM,< 0.1 µM,"COc1cc(C(=O)NC2(CO)CCN(C)C2)ccc1-c1cc2nccc(-c3ccc(OC4CCOCC4)c(C#N)c3)c2o1 (stereo not drawn) [Compound 345, 4-[7-[3-cyano-4-(oxan-4-yloxy)phenyl]furo[3,2-b]pyridin-2-yl]-N-[3-(hydroxymethyl)-1-methylpyrrolidin-3-yl]-3-methoxybenzamide]"
< 0.1 µM,0.1 to 1 µM,< 0.1 µM,"COc1cc(C(=O)N(C)CCO)cnc1-c1cc2nccc(-c3ccc(NC4CCOCC4)c(C#N)c3)c2o1 [Compound 318, 6-(7-(3-cyano-4-(tetrahydro-2H-pyran-4-ylamino)phenyl)furo[3,2-b]pyridin-2-yl)-N-(2-hydroxyethyl)-5-methoxy-N-methylnicotinamide]"
< 0.1 µM,< 0.1 µM,< 0.1 µM,"COc1cc(C(=O)N2CC3C2CCN3C)ccc1-c1cc2nccc(-c3ccc(OC4CCOCC4)c(C#N)c3)c2o1 (stereo not drawn) [Compound 474, 5-{2-[2-Methoxy-4-(2-methyl-2,6-diaza-bicyclo[3.2.0]heptane-6-carbonyl)-phenyl]-furo[3,2-b]pyridin-7-yl}-2-(tetrahydro-pyran-4-yloxy)-benzonitrile]"
